From a melting point compilation (Tetko et al.; mined from patent text by program, amines drawn as free bases though some values may be those of a salt) come the findings set out here.

Residues, ends and D or L forms follow the SMILES beside them. *: point of attachment. Boc = CC(C)(C)OC(=O)*; OBn = c1ccc(CO*)cc1; βAla = NCCC(=O)O

For the compound `COc1ccc(S(=O)(=O)Nc2nc(-c3cccc([N+](=O)[O-])c3)c(CN(C)C)s2)cc1OC`, the melting point (in general, the temperature of the solid-liquid transition) is 203 °C.
As for `CCCCCCCCCCCCCCCCCCc1ccc(O)c([N+](=O)[O-])c1`, the melting point was 71 °C.
The compound `O=C(c1cccs1)c1cnn2c(-c3cccc(NC(=S)Nc4ccccc4)c3)ccnc12` returned a melting point of 124 to 126 °C.
As for `Cc1ccc(S(=O)(=O)N2[C@H](CCCCc3nnnn3C)CC[C@@H]2c2ccc(F)cc2)cc1` (racemic), the figure is 77 °C; as for `BrCc1ccc(OCC(c2ccccc2)c2ccccc2)cc1`, 70 to 73 °C; as for `O=C(O)c1c(C(O)=S)cc([N+](=O)[O-])cc1-c1ccccc1`, 182 to 184 °C.
Next, `Cc1nc(N)c2ncn(CCOCc3ccncc3)c2c1C`: 195 to 196 °C; `Cc1ccc(C(=O)O)c(Oc2ccc3c(c2)c(C(=O)O)c(CC(=O)O)n3-c2ccc(OC(C)C)cc2)n1`: 179 °C; `CC(C)(C)CC(C)(C)c1ccc(Oc2cc3nc(-c4ccco4)oc3cc2[N+](=O)[O-])cc1`: 146 to 148 °C.
As for `OC[C@H](O)COc1ccccc1OCC1CC1`, the figure is 95 to 97 °C; as for `CCCC1C(C(=O)OCC)C(O)(C(F)(F)F)NC(O)(C(F)(F)F)C1C(=O)OCC` (stereo unspecified), 140 to 142 °C; as for `CCOC(=O)C1=NNC2C(=O)N(Cc3ccccc3)C(=O)C12` (stereo unspecified), 100 to 101 °C.
`CC(C)(C)OC(=O)CC(C#N)c1ccc(Cl)c(Cl)c1` (stereo unspecified): the melting point amounted to 67 °C.
For the compound `O=C(Nc1ccc(-n2nc(C(F)(F)F)cc2C(F)(F)F)cc1)c1ccccc1C(=O)c1ccccc1`, the melting point was 204 to 205 °C.
Next, `O=S(=O)(Nc1cccc2cc(C3=NCC(CCO)S3)[nH]c12)c1cccs1` (stereo unspecified): 156 to 158 °C; `CCOC(=O)c1[nH]cc(-c2ccc(F)cc2)c1-c1ccccc1`: 145 to 146 °C.
As for `CC(=O)Nc1cccc(/C=C/C(=O)N2CC(CCl)c3c2cc(N)c2ccccc32)c1` (stereo unspecified), the melting point is > 250 °C.
With `C=C(Cl)Cn1c(C)c(C)c2cnnc(OCc3ccccc3)c21`, the melting point was 88 to 90 °C.
Next, `CN1CCN(S(=O)(=O)c2cccc(NC(=O)c3cnn4c(C(F)(F)F)cc(-c5ccc(Cl)cc5)nc34)c2)CC1`: 195 °C.
As for `O=C1C(CCO)Oc2cc(F)ccc2N1Cc1ccccc1[N+](=O)[O-]` (stereo unspecified), the figure is 123 to 124 °C; as for `C1=C(c2cccs2)CCN(CCCSc2ccncc2)C1`, 86 to 87 °C.
Next, `CCCc1nc(C(C)(C)O)c(-c2nnn[nH]2)n1Cc1ccc(-c2ccccc2C(=O)C(=O)O)cc1`: 169 to 170 °C; `Cc1noc(NS(=O)(=O)c2ccccc2-c2ccc(-c3ncco3)cc2Cn2ccnc2C(C)C)c1C`: 184 to 188 °C.
In turn, `CCOC(=O)c1cc(F)cnc1NCc1ccc(OC)cc1` came in with a melting point of 90 °C.
As for `O=C(c1ccc(F)nc1)N1CCC[C@H](c2nc(-c3ccc[nH]3)no2)C1`, the figure is 131 to 132 °C.
As for `O=C(O)Cc1cccc(OCc2cn(-c3ccc(C(F)(F)F)cn3)nc2C2CCCCC2)c1`, the figure is 129 to 130 °C; as for `Cn1c(-c2cc(C(C)(C)C)c(O)c(C(C)(C)C)c2)cnc1S`, 288 to 289 °C; as for `O=C(Nc1ccc(Cl)cc1)c1cc(Br)c2cccnc2c1O`, 213 to 215 °C.
Next, `NS(=O)(=O)c1cc2c(cc1Cl)C(=O)N(CCc1ccccn1)C2=O`: 240 to 241 °C; `COc1ccc(-c2ccc(OC3SCC(O)C(O)C3O)cn2)cn1` (stereo unspecified): 167 °C.
As to `Cc1cccc(C=CC(=O)C=Cc2cccc(C)c2)c1`, the melting point was in the range of 68 to 72 °C.
As for `CCc1cc(C(=O)c2ccccc2Cl)c(NC)s1`, the figure is 100 to 102 °C; as for `O=C(NC(=O)c1c(Cl)cccc1Cl)Nc1ccc(OC(F)(F)C(Cl)Cl)cc1`, 211 to 213 °C; as for `CNc1nc(-c2ccccc2)c(-c2ccc(=O)n(C(C)C)n2)s1`, 234 to 236 °C.
As for `Cc1cccc(-n2nc(C)cc2-c2ccnc(S(C)(=O)=O)c2)c1`, the figure is 140 to 142 °C; as for `COc1cccc2c1CC(COS(=O)(=O)c1ccc(C)cc1)CC2` (stereo unspecified), 53 to 58 °C.
As for `O=C(CCNC(=O)OCc1ccccc1)NCCSC(=O)OCc1ccccc1`, the figure is 121 to 122 °C; as for `Clc1ccc2oc(-c3ccccc3)cc2c1`, 140 to 143 °C; as for `CC(=O)c1cc(-c2ccncc2)[nH]c1C`, 236 to 237 °C.
`COc1cccc(OC)c1-c1cc(C(=O)NC2(C(=O)O)C3CCCC2CCC3)nn1-c1ccc(C(=O)N(C)CCCN(C)C)cc1C(C)C` (stereo unspecified) showed a melting point of 160 °C.
Next, `CCn1cc(Cl)c2cnc(NC(=O)c3ccc([C@](C)(O)CO)cc3)cc21`: 223 to 224 °C; `CN(Cc1ccc2c(Br)c(OCc3nnn[nH]3)ccc2c1)C(=O)c1cn(C)c2ccccc12`: 227 to 228 °C.
As for `C[C@H](CS(C)(=O)=O)Nc1n[nH]c2nc(Oc3ccc(F)cc3F)ncc12`, the figure is 178 to 179 °C; as for `COC(=O)C(Cc1ccc(OCCc2nc(-c3ccccc3)oc2C)cc1)C(=O)NC(N)=O` (stereo unspecified), 74.6 to 75.6 °C; as for `O=C(Nc1cccc(Cl)c1C(=O)O)c1ccccc1`, 208 to 210 °C.
As for `CC(C)(CNC(=O)CCCC(=O)O)SN=O`, the figure is 104 to 107 °C; as for `CNC(=O)CC1CSC2=C(C(=O)OC(C)C)CCN21` (stereo unspecified), 79 to 95 °C.
Compound `Cc1c(C)c(N2Cc3cc(Cl)c(Cl)cc3C2)c(C)c2c1OC(C)(C)C2c1ccc(C(C)C)cc1` (stereo unspecified) registered a melting point of 148 to 150 °C.
Next, `O=C(Cc1ccccn1)NC1CCC2(O)C3Cc4ccc(O)c5c4C2(CCN3CC2CC2)C1O5` (stereo unspecified): 210 to 212 °C; `Cc1c(C(=O)Cl)cccc1[N+](=O)[O-]`: 68 to 70 °C.
Next, `N#CNc1ccc2c3c(cccc13)CC2`: 163 to 165 °C; `Cc1cc(SCc2ccnc3oc(-c4ccc(C(F)(F)F)cc4)nc23)ccc1OCC(=O)O`: 154 to 157 °C.
As for `O=C(O)CCCC(=O)c1cc2c(=O)c3ccccc3ccc2s1`, the figure is 149 to 151 °C; as for `Clc1ccc(C2=CCCc3cc(Cl)c(Cl)cc32)cc1`, 106 to 108 °C.
`COc1cc2c(cc1O)C(OC)CN(Cc1cc(OC)c(OC)c(OC)c1)C2` (stereo unspecified) showed a melting point of 51 to 54 °C.
As for `CC(C)n1c(=O)n(C(=O)NCC2CCN(CC3(C(=O)O)CCCCC3)CC2)c2ccccc21`, the figure is 151 °C.
As for `CCCCNC(=O)c1ccc2c(=O)nc(-c3ccccn3)sc2c1`, the figure is 194 °C; as for `CC(C)CC(=O)Nc1cccc(-c2ccnc3c(-c4ccc(Oc5ccccc5)cc4)cnn23)c1`, 175 to 178 °C; as for `OC(CCl)CNc1ccc(Cl)c(Cl)c1` (stereo unspecified), 51 to 53 °C.
Next, `CC(=O)OC1CSC(Oc2ccc(C)nc2-c2ccncc2)C(OC(C)=O)C1OC(C)=O` (stereo unspecified): 140 to 144 °C; `CCCCCCCCC=CCCCCCCCCCCCC(=O)NC`: 48 to 49 °C.
On to `CC(C)(O)CNC(=O)CC1CN=C(c2cc3cc(Oc4ccc(S(C)(=O)=O)nc4)ccc3[nH]2)S1` (stereo unspecified), for which the melting point lay in the range of 178 to 179 °C.
As for `CCOC(=O)C1=C(O)CCn2c1nc1ccccc12`, the figure is 233 to 235 °C; as for `CNc1nnc(-c2ccc3occ(-c4ccc(S(C)=O)cc4)c3c2)o1` (stereo unspecified), 240 to 241 °C.
In the case of `O=C1C(CCO)Oc2ccccc2N1Cc1cc(Cl)cc(Cl)c1` (stereo unspecified), the melting point was in the range of 104 to 106 °C.
Next, `Fc1ccc(C=Cc2nc(CNc3ccc(CCCCn4ccnn4)cc3)co2)c(C(F)(F)F)c1`: 109 to 111 °C; `O=S(Cc1ccccc1)C1CCN(Cc2ccccc2)CC1` (racemic): 123 °C.
Next, `COc1cc(OC(F)F)nc(N)n1`: 106 to 107 °C; `Cc1nnc(-c2ccc3occ(-c4cnn(Cc5ccccc5C(F)(F)F)c4)c3c2)o1`: 165 to 166 °C; `C#CCN(C(=O)C(Cl)Cl)C(C)C`: 58 to 59 °C.
Next, `CCc1nnc(-c2cn3c(C)c(CC)c(OC)nc3n2)o1`: 170 to 172 °C; `N#Cc1nn(-c2c(Cl)cc(Cl)cc2Cl)cc1C1CC1(Cl)Cl` (stereo unspecified): 158 °C; `Cn1c(=O)cc(-c2cccc(Cl)c2)c2cc(C(=O)c3ccoc3)ccc21`: 192 °C.
`CC(=O)OCc1cccc(Nc2nccc(-c3cnn(C(C)=O)c3-c3ccccc3)n2)c1` gave a melting point of 133 to 134 °C.
Next, `Clc1nn2cnnc2c2c1C1CCC2CC1`: 137 to 140 °C.
Next, `CCOC(=O)c1cnn(-c2cc(Cl)cc(Cl)c2)c1S(C)(=O)=O`: 179 to 181 °C; `CC(C)(C)OC(=O)NCCC(=O)NC(CC(=O)OCc1ccccc1)C(=O)NC(Cc1ccccc1)C(=O)OCc1ccccc1` (stereo unspecified) ({Boc-βAla}-Asp(OBn)-Phe-OBn; configuration not given here): 124 to 125 °C; `C#CCOc1ccc(/C=C/C(=O)Nc2ccccc2C(=O)O)cc1OC`: 191 to 193 °C.
As for `CC(=O)c1ccc2c(c1)Cc1ccccc1O2`, the figure is 103 to 104 °C.
With `COC(=O)CSc1nc(Sc2ccc(Cl)cc2)ncc1[N+](=O)[O-]`, the melting point lay in the range of 157 to 159 °C.
The compound `COc1cccc(F)c1-c1cc(NC(=O)C2CCNCC2)ncn1` displayed a melting point of 140 to 143 °C.
As for `O=C(NCc1ccc(C=NO)cc1Cl)C1CC1`, the figure is 163 to 166 °C.
Next, `CCC(C)COC(=O)c1ccc(OC(=O)c2ccc(O)cc2)cc1` (stereo unspecified): 90.8 to 92.6 °C; `Cc1c(NC(=O)CC(C)(C)C)cc2c(c1C)OC(C)(C)C2Cc1ccc(C(C)C)cc1` (stereo unspecified): 130 to 132 °C; `CN1OCC(=O)N(c2ccc(C(C)(C)C)cc2)C1=S`: 168 to 170 °C.
As to `CCCCCCCCCCCCCCCCOc1ccc(-c2nc(CC(=O)O)c(Oc3ccc(Cl)cc3)o2)cc1`, the melting point fell in the range of 76 to 77 °C.
